The values below come from US8697710B2, “Optionally substituted 3-amino-4-(thioxo or imino)-4,5-dihydro-2H-pyrazolo [3,4-d]pyrimidin-6(7H)-ones” (Intra-Cellular Therapies, Inc., priority 2008, dated 2014).

Broadly, the IC50 is the concentration that gives 50% inhibition. Low readings indicate higher potency, high ones lower potency.

The target in the experiment is Phosphodiesterase 1B (PDE1B). The experiment can be described thus: Measurement of PDE1B inhibition in vitro using IMAP phosphodiesterase assay kit. As to conditions: PDE1 inhibitory activity, IMAP fluorescence polarization, cGMP-fluorescein substrate. The class given is biochemical, bovine. From the text: Measurement of PDE1B Inhibition in Vitro Using IMAP Phosphodiesterase Assay Kit
Phosphodiesterase 1B (PDE1B) is a calcium/calmodulin dependent phosphodiesterase enzyme that converts cyclic guanosine monophosphate (cGMP) to 5′-guanosine monophosphate (5′-GMP). PDE can also convert a modified cGMP substrate, such as the fluorescent molecule cGMP-fluorescein, to the corresponding GMP-fluorescein. The generation of GMP-fluorescein from cGMP-fluorescein can be quantitated, using, for example, the IMAP (Molecular Devices, Sunnyvale, Calif.) immobilized-metal affinity particle reagent.
Briefly, the IMAP reagent binds with high affinity to the free 5′-phosphate that is found in GMP-fluorescein and not in cGMP-fluorescein. […] Small fluorophores that are bound up in a large, slowly tumbling, complex can be distinguished from unbound fluorophores, because the photons emitted as they fluoresce retain the same polarity as the photons used to excite the fluorescence.
In the phosphodiesterase assay, cGMP-fluorescein, which cannot be bound to IMAP, and therefore retains little fluorescence polarization, is converted to GMP-fluorescein, which, when bound to IMAP, yields a large increase in fluorescence polarization (Δmp). Inhibition of phosphodiesterase, therefore, is detected as a decrease in Δmp. […]
A decrease in GMP concentration, measured as decreased Δmp, is indicative of inhibition of PDE activity.
On the technique in general: In fluorescence polarisation assays a small probe gives low polarisation when free and higher when bound to something large.

SMILES strings stand for the structures. Some results are limits rather than exact numbers.

On to `C/N=c1/c2c(Nc3ccccc3)n(Cc3ccc(-c4ccccn4)cc3)nc2n(CC(C)C)c(=O)n1C` [Example 2, 7-Isobutyl-5-methyl-4-(methylimino)-3-(phenylamino)-2-(4-(pyridin-2-yl)benzyl)-4,5-dihydro-2H-pyrazolo[3,4-d]pyrimidin-6(7H)-one], for which the IC50 is under 200 nM.
